Here are results for one compound from US11324706B2, “Composition for inhibiting growth of breast cancer stem cells containing phenylacetaldehyde” (JEJU NATIONAL UNIVERSITY INDUSTRY-ACADEMIC COOPERATION …, priority 2016, dated 2022).

Test [1] has as its system MDA-MB-231 cells. The experiment in a line: Cell proliferation (MTS) analysis, MDA-MB-231. Format: cell-based, human. As to conditions: MDA-MB-231, 48 hours after PAA treatment. The protocol:
(FIGS. 1A, B and C) show chemical structures of PAA and viability of MCF-7 and MDA-MB-231 cells depending on PAA. MCF-7 and MDA-MB-231 cells were treated with increasing concentrations of PAA for 48 hours. Anti-proliferation effects of PAA were measured by MTS analysis.
Proliferation rates of MCF-7 and MDA-MB-231 cells were measured using a CellTiter 96® aqueous one solution cell proliferation kit. MCF-7 and MDA-MB-231 cells were cultured in the presence of PAA (0.1, 0.2, 0.5, 1 and 2 mM) on a 96-well plate for 48 hours. In accordance with the manufacturer's protocol, absorbance at 490 nm was determined using a 96-well plate reader (Dynex Revelation, Dynex Ltd., Billingshurst, UK). All data was determined by measurement of three sets.
In order to investigate anti-proliferation effects of PAA in human breast cancer cell lines, i.e., MCF-7 and MDA-MB-231, the cancer cell lines were treated with different concentrations of PAA and then MTS analysis was conducted.

Test [2] has as its system MDA-MB-231 cells. The experiment in a line: Annexin V/PI staining analysis (FACS). Format: cell-based, human. As to conditions: MDA-MB-231, PAA 0.2 mM, 24 hours. As for the experimental part: (FIGS. 1D, E and F) show effects of PAA on apoptosis of breast cancer cells. MDA-MB-231 cells were treated with PAA for 24 hours, and apoptotic cells were analyzed by FACS using an Annexin V-PI staining kit. Caspase 3/7 activity in MDA-MB-231 cells was analyzed using a Caspase-Gloss 3/7 kit. By fluorescent staining, apoptotic cells were analyzed and nuclei thereof were stained with Hoechst 33258 in breast cancers (magnified, 200×) (FIG. 1);
[…] In accordance with the manufacturer's instructions, the cancer cells were double-stained with PI and FITC-Annexin V. The sample was analyzed by flow cytometry (Accuri C6, BD, San Diego, Calif., USA).

For test [3], the system named is MCF-7 cells. In words: Xenograft tumor model. Format: in vivo, NOD-SCID (BALB/cSIc (nu/nu)) female nude mice. As for the experimental part: FIGS. 3A, 3B and 3C show effects of PAA on tumor growth in xenograft tumor models. 3 million cells were injected into breast fat pads of NOD-SCID female nude mice;
The dose of used drug is 10 mg/kg. 9 weeks later, the image was captured with Odyssey® image (LICOR, Pearl image system, USA). Using an IRDye 800 CW optical probe (2DG), a high grade of tumor was used to detect breast tumors at a channel of 800 nm and was represented by pseudo-color;
A tumor growth curve was monitored during the test period;
Tumor volume was measured after initiation of treatment. * means p<0.05, as compared to control group. A representative image was captured at the end of 9 weeks of treatment. Results are shown as a vehicle-treated control group, a PAA-treated mouse and a Dox-treated mouse;
24 NOD-SCID (BALB/cSIc (nu/nu)) female nude mice in total were divided into four groups producing breast cancer cells. Six mice as a negative control group were not subjected to chemotherapy. However, the volumes of tumors of control group mice were measured every three days using the Equation of (width^2×length)/2 (FIG. 3). PAA was administered at the optimal dose of 10 to 50 mg/kg to six other nude mice via breast fat pad injection. In addition, doxorubicin (Dox) was administered daily in a low dose of 10 mg/kg to other six nude mice as a positive control group via breast fat pad injection. The last group was used as a non-tumor group without treatment.

In test [4] the test system is MCF-7 cell-derived mammospheres. The experiment in a line: Mammosphere formation, MCF-7-derived. Format: cell-based, human. The protocol:
FIGS. 4A, 4B and 4C show effects of PAA on formation of MCF-7 cell-derived mammospheres. Primary mammospheres were cultured together with PAA (0.2 and 0.5 mM) or DMSO;
Human breast cancer cells, i.e., MCF-7 and MDA-MB-231, were commercially obtained from American Type Culture Collection (ATCC; Manassas, Va., USA). MCF-7 and MDA-MB-231 cells were cultured in Dulbecco's modified essential medium (DMEM; Hyclone, Logan, Utah, USA) containing 10% fetal bovine serum (FBS; Hyclone), 100 U/mL of penicillin, and 100 μg/mL of streptomycin (Hyclone). The MCF-7 and MDA-MB-231 cells were maintained at 37° C. in a 5% CO2-containing humidified incubator. The cells were plated at a density of 1×10^6 on a 10 cm petri dish. In order to establish primary mammospheres, single cell-suspended MCF-7 and MDA-MB-231 cells were seeded at a density (cells/well) of 3.5×10^4 to 4×10^4 and 0.5×10^4 to 1×10^4, respectively, on ultra-low attachment 6-well plates containing 2 ml complete MammoCult™ medium (StemCell Technologies, Vancouver, BC, Canada). The complete MammoCult™ medium was supplemented with 4 μg/mL of heparin, 0.48 μg/mL of hydrocortisone, 100 U/mL of penicillin and 100 μg/mL of streptomycin. The cells were cultured for 7 days in a 37° C. 5% CO2 incubator.
At 7 days of culture, the cell culture plate was disposed on a scanner (Epson Perfection V700 PHOTO, Epson Korea, Co, Seoul, Korea) to obtain an 8 bit gray scale image of mammospheres. The image was obtained at a low resolution (300 dpi) using an NICE software program and downloaded from ftp://ftp.nist.gov/pub/physics/mLclarke/NICE. For counting, preferred numbers of rows and columns (for example, 2×3 of 6-well plate) were selected to form regions of interest (ROIs), and an oval setting of the NICE program was selected and then respective ROIs were defined by moving the shapes of provided ROIs and controlling the sizes thereof. The background signal of the image was negated using a critical algorithm and the selected image was automatically counted. Regarding the mammosphere formation analysis, formation efficiency of mammospheres (MFE, %) was determined in accordance with the number of mammospheres per well/the total number of cells plated per well×100.

Test [5] concerns HT-29 cells. The experiment in a line: MTS analysis in human colorectal cancer cells. Type of test: cell-based. The settings on record: HT-29, MTS, PAA at a concentration up to 2 mM. As for the experimental part: Anti-proliferation effects of PAA in human colorectal cancer cell lines were measured by MTS analysis.
Next, in order to investigate anti-proliferation effects of PAA on human colorectal cancer cell lines, i.e., HT-29 cells, after treatment with PAA at different concentrations, MTS analysis was conducted.

“Also recorded” adds a separate entry of the source.

As to `O=CCc1ccccc1` [PAA, phenylacetaldehyde], in test [1], the “PAA concentration at which growth of the cell line was concentration-dependently inhibited” value is recorded as no less than 100 μm. In test [2], the “number of breast cancer cells (Annexin V+) killed” value is “increased”. In addition, the tumor volume result in test [3] (compared with Doxorubicin positive control group (10 mg/kg)) was “less than that of Doxorubicin”; in test [3] (compared with control group not treated with PAA, breast fat pad injection), “less than that of a control group”. Besides, the tumor weight result in test [3] (compared with control group not treated with PAA) is recorded as “less than control group”. For the same compound, in test [4] (MCF-7-derived, 7 days), the size of mammospheres entry is reported as “reduced”. The “formation of primary mammospheres derived from MCF-7 cells” value in test [4] (volatile materials exposed to MCF-7 (FIG. 5B)) is recorded as “potently inhibited”. For the same compound, the “growth (proliferation) of colorectal cancer cells” value in test [5] is reported as “did not affect; also recorded: no significant proliferation inhibitory effects”.
